Measurements reported in patent publication US7858635B2 (priority 2005, dated 2010).

How the values were obtained:
[1] = target: T1, M4 muscarinic receptor (Homo sapiens, UniProt P08173); assay: Functional mobilization of intracellular calcium (FLIPR, Fluo-3), M4-CHO cells; format: cell-based; conditions: compound nos. 1-454; for Emax: read-out: M4 Efficacy; for M4 Activity: M4-CHO cells, calcium mobilization
T1 construct: expressed in transfected cells; host or cells: CHO cells (M4-CHO, under puromycin, zeocin and blasticidin selection)
T1 sequence (P08173 1-479): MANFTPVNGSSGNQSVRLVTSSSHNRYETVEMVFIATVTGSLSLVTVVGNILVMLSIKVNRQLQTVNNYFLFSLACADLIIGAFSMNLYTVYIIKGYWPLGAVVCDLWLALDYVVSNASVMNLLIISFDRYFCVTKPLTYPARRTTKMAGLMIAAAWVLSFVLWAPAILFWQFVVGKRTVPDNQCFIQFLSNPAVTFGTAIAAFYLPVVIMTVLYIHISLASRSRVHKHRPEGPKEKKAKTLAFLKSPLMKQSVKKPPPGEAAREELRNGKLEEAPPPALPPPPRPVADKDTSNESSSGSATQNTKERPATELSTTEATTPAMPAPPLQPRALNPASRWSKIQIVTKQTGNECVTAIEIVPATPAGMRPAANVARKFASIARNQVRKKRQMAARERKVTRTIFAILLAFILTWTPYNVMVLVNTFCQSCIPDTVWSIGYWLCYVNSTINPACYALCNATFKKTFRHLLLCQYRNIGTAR
How it was run: (§1)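 Intracellular calcium was tracked by fluorescence (488/540 nm) over 60 sec after compound addition to dye-loaded CHO cells expressing the receptor. Inhibitory activity used a 15 min pre-incubation before carbachol at the subtype EC80.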

[2] = target: T2, M1 muscarinic receptor (Homo sapiens, UniProt P11229); assay: Functional mobilization of intracellular calcium (FLIPR, Fluo-3), M1-CHO cells; format: cell-based; conditions: compound nos. 1-454; for Emax: read-out: M1 Efficacy; for M1 Activity: M1-CHO cells, calcium mobilization
T2 construct: expressed in transfected cells; host or cells: CHO cells (M1-CHO, under zeocin and G418 selection)
T2 sequence (P11229 1-460): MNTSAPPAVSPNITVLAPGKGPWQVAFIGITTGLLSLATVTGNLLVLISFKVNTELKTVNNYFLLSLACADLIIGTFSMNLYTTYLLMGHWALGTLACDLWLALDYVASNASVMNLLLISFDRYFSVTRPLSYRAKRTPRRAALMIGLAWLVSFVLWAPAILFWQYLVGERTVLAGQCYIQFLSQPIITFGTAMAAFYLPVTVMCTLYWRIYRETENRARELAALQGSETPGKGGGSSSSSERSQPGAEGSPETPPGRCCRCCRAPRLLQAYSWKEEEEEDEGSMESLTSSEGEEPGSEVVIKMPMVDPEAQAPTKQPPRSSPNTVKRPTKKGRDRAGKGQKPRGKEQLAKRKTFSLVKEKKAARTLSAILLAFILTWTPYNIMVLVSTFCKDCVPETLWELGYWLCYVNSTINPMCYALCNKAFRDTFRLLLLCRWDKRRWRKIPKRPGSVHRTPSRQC
How it was run: as §1

[3] = 100% efficacy is the maximum response obtained with the Carbachol control

SMILES | Emax [1, 3] [%] | M4 Activity [1] | Emax [2, 3] [%] | M1 Activity [2] | M4 Efficacy [1, 3] | M1 Efficacy [2, 3]
CCOC(=O)N1CCC(N2CCC3(CC2)CN(C(C)=O)c2ccc(-c4ccccc4C)cc23)CC1 [compound 78] | < 55 | ++ (activity was measured to be between 0.1 μM and 4.0 μM) | 65 to 85 | +++ (activity was measured to be less than or equal to 0.7 μM) | – | –
CCCOC(=O)N1CCC(N2CCC3(CC2)CN(C(C)=O)c2ccc(F)cc23)CC1 [compound 79] | < 55 | + (activity was measured to be greater than or equal to 4.0 μM) | < 65 | ++ (activity was measured to be between 0.7 μM and 3.0 μM) | – | –
COCCOC(=O)N1CC2(CCN(C3CC4CCC(C3)N4C(=O)O[C@H]3CCOC3)CC2)c2cc(F)ccc21 (stereo partly shown) [compound 80] | < 55 | ++ (activity was measured to be between 0.1 μM and 4.0 μM) | < 65 | ++ (activity was measured to be between 0.7 μM and 3.0 μM) | – | –
C#CCOC(=O)N1CCC(N2CCC3(CC2)CN(C(C)=O)c2ccc(C)cc23)CC1 [compound 81] | < 55 | + (activity was measured to be greater than or equal to 4.0 μM) | < 65 | ++ (activity was measured to be between 0.7 μM and 3.0 μM) | – | –
CC(=O)N1CC2(CCN(CC3CCN(C(=O)O[C@@H]4CCOC4)CC3)CC2)c2cc(F)ccc21 [compound 82] | – | ++ (activity was measured to be between 0.1 μM and 4.0 μM) | – | +++ (activity was measured to be less than or equal to 0.7 μM) | ++ (efficacy was calculated to be between 70% and 55%) | ++ (efficacy was calculated to be between 85% and 65%)
CCOC(=O)N1C2CCC1CC(N1CCC3(CC1)CN(C(=O)Nc1c(C)noc1C)c1ccc(F)cc13)C2 (stereo not shown) [compound 83] | < 55 | + (activity was measured to be greater than or equal to 4.0 μM) | < 65 | +++ (activity was measured to be less than or equal to 0.7 μM) | – | –
CCOC(=O)N1CCC(N2CCC3(CC2)CN(C(C)=O)c2ccc(-c4cccc(F)c4)cc23)CC1 [compound 84] | 55 to 70 | ++ (activity was measured to be between 0.1 μM and 4.0 μM) | 65 to 85 | +++ (activity was measured to be less than or equal to 0.7 μM) | – | –
Clc1ccc2c(c1)C1(CCN(C3CC4CCC(C4)C3)CC1)CN2 (stereo not shown) [compound 85] | 55 to 70 | ++ (activity was measured to be between 0.1 μM and 4.0 μM) | 65 to 85 | +++ (activity was measured to be less than or equal to 0.7 μM) | – | –
CCON=C1CCC(N2CCC3(CC2)CN(C(C)=O)c2ccc(F)cc23)CC1 (stereo not shown) [compound 86, 1-(1′-(4-(ethoxyimino)cyclohexyl)-5-fluorospiro[indoline-3,4′-piperidine]-1-yl)ethanone] | < 55 | + (activity was measured to be greater than or equal to 4.0 μM) | 65 to 85 | +++ (activity was measured to be less than or equal to 0.7 μM) | – | –
O=C(C1CC1)N1CC2(CCN(C3CC4CCC(C3)N4C(=O)O[C@@H]3CCOC3)CC2)c2cc(F)ccc21 (stereo partly shown) [compound 87] | < 55 | + (activity was measured to be greater than or equal to 4.0 μM) | 65 to 85 | +++ (activity was measured to be less than or equal to 0.7 μM) | – | –
CCOC(=O)N1C2CCC1CC(N1CCC3(CC1)CN(C(=O)c1ccno1)c1ccc(F)cc13)C2 (stereo not shown) [compound 88] | < 55 | ++ (activity was measured to be between 0.1 μM and 4.0 μM) | 65 to 85 | +++ (activity was measured to be less than or equal to 0.7 μM) | – | –
CCOC(=O)N1C2CCC1CC(N1CCC3(CC1)CN(S(=O)(=O)c1c(C)noc1C)c1ccc(F)cc13)C2 (stereo not shown) [compound 89] | < 55 | ++ (activity was measured to be between 0.1 μM and 4.0 μM) | 65 to 85 | +++ (activity was measured to be less than or equal to 0.7 μM) | – | –
CCOC(=O)N1C2CCC1CC(N1CCC3(CC1)CN(C(=O)OCCOC)c1ccc(F)cc13)C2 (stereo not shown) [compound 90] | < 55 | + (activity was measured to be greater than or equal to 4.0 μM) | 65 to 85 | ++ (activity was measured to be between 0.7 μM and 3.0 μM) | – | –
CCCOC(=O)N1CCC(N2CCC3(CC2)CN(C(=O)N(C)C)c2ccc(F)cc23)CC1 [compound 91] | < 55 | ++ (activity was measured to be between 0.1 μM and 4.0 μM) | 65 to 85 | +++ (activity was measured to be less than or equal to 0.7 μM) | – | –
CCOC(=O)N1CCC(N2CCC3(CC2)CN(C(C)=O)c2ccc(C)cc23)CC1 [compound 92] | < 55 | ++ (activity was measured to be between 0.1 μM and 4.0 μM) | 65 to 85 | +++ (activity was measured to be less than or equal to 0.7 μM) | – | –
O=C(O[C@@H]1CCOC1)N1CC2(CCN(C3CC4CCC(C3)N4C(=O)O[C@H]3CCOC3)CC2)c2cc(F)ccc21 (stereo partly shown) [compound 93] | < 55 | ++ (activity was measured to be between 0.1 μM and 4.0 μM) | < 65 | ++ (activity was measured to be between 0.7 μM and 3.0 μM) | – | –
CC(=O)N1CC2(CCN(C3CC4CCC(C3)N4C(=O)OC(C)C)CC2)c2cc(F)ccc21 (stereo not shown) [compound 94] | < 55 | ++ (activity was measured to be between 0.1 μM and 4.0 μM) | < 65 | +++ (activity was measured to be less than or equal to 0.7 μM) | – | –
COCCOC(=O)N1C2CCC1CC(N1CCC3(CCc4ccccc43)CC1)C2 (stereo not shown) [compound 95] | < 55 | ++ (activity was measured to be between 0.1 μM and 4.0 μM) | 65 to 85 | +++ (activity was measured to be less than or equal to 0.7 μM) | – | –
COC(=O)N1CC2(CCN(C3CC4CCC(C3)N4C(=O)O[C@H]3CCOC3)CC2)c2cc(F)ccc21 (stereo partly shown) [compound 96] | < 55 | + (activity was measured to be greater than or equal to 4.0 μM) | 65 to 85 | ++ (activity was measured to be between 0.7 μM and 3.0 μM) | – | –
COC(=O)N1CC2(CCN(C3CC4CCC(C3)N4C(=O)OC(C)C)CC2)c2cc(F)ccc21 (stereo not shown) [compound 97] | < 55 | + (activity was measured to be greater than or equal to 4.0 μM) | 65 to 85 | +++ (activity was measured to be less than or equal to 0.7 μM) | – | –
CCCOC(=O)N1CCC(CN2CCC3(CC2)CN(C(C)=O)c2ccc(F)cc23)CC1 [compound 98] | < 55 | ++ (activity was measured to be between 0.1 μM and 4.0 μM) | 65 to 85 | +++ (activity was measured to be less than or equal to 0.7 μM) | – | –
CCOC(=O)N1C2CCC1CC(N1CCC3(CC1)COc1ccc(Cl)cc13)C2 (stereo not shown) [compound 99] | < 55 | + (activity was measured to be greater than or equal to 4.0 μM) | < 65 | +++ (activity was measured to be less than or equal to 0.7 μM) | – | –
